{"source": "ChEMBL document CHEMBL5120927", "about": "“LEGO-Lipophosphonoxins: A Novel Approach in Designing Membrane Targeting Antimicrobials” (J Med Chem, 2022)", "key": {"Escherichia coli [1]": {"tested_on": "Escherichia coli", "assay": "Antibacterial activity against Escherichia coli ATCC 25922 = CCM 3954 assessed as inhibition of bacterial growth incubated for 24 hrs by microdilution assay", "type": "functional"}, "Cell membrane [2]": {"tested_on": "Cell membrane", "assay": "Induction of cell envelope damage in Staphylococcus aureus assessed as tubular structure at 8 mg/L measured after 8 hrs by scanning electron microscope analysis"}, "Lipid bilayer": {"tested_on": "Lipid bilayer", "assay": "Induction of membrane disruption of bacterial inner membrane mimic DOPE/DOPG (2:1) large unilamellar vesicles assessed as carboxyfluorescein leakage at 2.5 mg/L measured after 90 mins by spectrofluorometer analysis"}, "[3]": {"tested_on": "Staphylococcus epidermidis", "assay": "Antibacterial activity against Staphylococcus epidermidis CCM 7221 assessed as inhibition of bacterial growth incubated for 24 hrs by microdilution assay", "type": "functional"}, "Staphylococcus aureus [4]": {"tested_on": "Staphylococcus aureus", "assay": "Antibacterial activity against wild type Staphylococcus aureus 4482/A assessed as reduction in microbial growth incubated for 24 hrs by microdilution assay", "type": "functional"}, "Staphylococcus aureus [5]": {"tested_on": "Staphylococcus aureus", "assay": "Antibacterial activity against wild type Staphylococcus aureus 4788/B assessed as reduction in microbial growth incubated for 24 hrs by microdilution assay", "type": "functional"}, "Staphylococcus aureus [6]": {"tested_on": "Staphylococcus aureus", "assay": "Antibacterial activity against wild type Staphylococcus aureus 4738/B assessed as reduction in microbial growth incubated for 24 hrs by microdilution assay", "type": "functional"}, "Staphylococcus aureus [7]": {"tested_on": "Staphylococcus aureus", "assay": "Antibacterial activity against Staphylococcus aureus CCM 4223 persisters assessed as reduction in bacterial cell count at 1 to 10 times MIC incubated for 3 hrs by cell counting method", "type": "functional, organism-based"}, "Escherichia coli [8]": {"tested_on": "Escherichia coli", "assay": "Antibacterial activity against Escherichia coli CCM 3954 persisters assessed as reduction in bacterial cell count at 1 to 10 times MICincubated for 3 hrs by cell counting method", "type": "functional, organism-based"}, "Staphylococcus aureus [9]": {"tested_on": "Staphylococcus aureus", "assay": "microbe, parasite or virus in culture", "details": "4880/C, 24 h", "description": "Antibacterial activity against wild type Staphylococcus aureus 4880/C assessed as reduction in microbial growth incubated for 24 hrs by microdilution assay"}, "Cell membrane [10]": {"tested_on": "Cell membrane", "assay": "Induction of plasma membrane depolarization in Staphylococcus aureus assessed as formation of fluctuating unstable pores at 2.5 mg/L", "type": "cell membranes"}, "Staphylococcus aureus [11]": {"tested_on": "Staphylococcus aureus", "assay": "Antibacterial activity against wild type Staphylococcus aureus 4968/C assessed as reduction in microbial growth incubated for 24 hrs by microdilution assay", "type": "functional"}, "Cell membrane [12]": {"tested_on": "Cell membrane", "assay": "Induction of membrane permeabilization in Escherichia coli CCM 3954 assessed as propidium iodide influx measured after 80 mins by spectrofluorometer method", "details": "dose 2.5-5 mg/L, DDE = dose-dependent effect"}, "Staphylococcus aureus [13]": {"tested_on": "Staphylococcus aureus", "assay": "Antibacterial activity against wild type Staphylococcus aureus 4883/C assessed as reduction in microbial growth incubated for 24 hrs by microdilution assay", "type": "functional"}, "Pseudomonas aeruginosa [14]": {"tested_on": "Pseudomonas aeruginosa", "assay": "Antibacterial activity against multidrug-resistant Pseudomonas aeruginosa assessed as reduction in microbial growth incubated for 24 hrs by microdilution assay", "type": "functional"}, "Staphylococcus aureus [15]": {"tested_on": "Staphylococcus aureus", "assay": "Antibacterial activity against wild type Staphylococcus aureus 78/CF assessed as reduction in microbial growth incubated for 24 hrs by microdilution assay", "type": "functional"}, "[16]": {"assay": "Gradient chromatographic hydrophobicity index of the compound at pH 3.7 by HPLC analysis", "type": "ADME"}, "Cell membrane [17]": {"tested_on": "Cell membrane", "assay": "Induction of cell envelope damage in Staphylococcus aureus assessed as loss of cytoplasmic content at 8 mg/L measured after 8 hrs by scanning electron microscope analysis", "type": "subcellular"}, "Cell membrane [18]": {"tested_on": "Cell membrane", "assay": "Induction of plasma membrane depolarization in Escherichia coli CCM 3954 assessed as increase in fluorescence intensity at 2.5 mg/L measured after 80 seconds by DiSC3-5 dye based spectrofluorometer method", "type": "cell membranes", "details": "time 80.0 sec"}, "Staphylococcus aureus [19]": {"tested_on": "Staphylococcus aureus", "assay": "Antibacterial activity against wild type Staphylococcus aureus 4904/C assessed as reduction in microbial growth incubated for 24 hrs by microdilution assay", "type": "functional"}, "Staphylococcus aureus [20]": {"tested_on": "Staphylococcus aureus", "assay": "Antibacterial activity against wild type Staphylococcus aureus 77/CF assessed as reduction in microbial growth incubated for 24 hrs by microdilution assay", "type": "functional"}, "Escherichia coli [21]": {"tested_on": "Escherichia coli", "assay": "Antibacterial activity against multidrug-resistant Escherichia coli CE5556 expressing CTX-M-15 assessed as reduction in microbial growth incubated for 24 hrs by microdilution assay", "type": "functional"}, "Staphylococcus aureus [22]": {"tested_on": "Staphylococcus aureus", "assay": "Antibacterial activity against Staphylococcus aureus ATCC 29213 = CCM 4223 assessed as inhibition of bacterial growth incubated for 24 hrs in presence of BSA by microdilution assay", "type": "functional"}, "[23]": {"assay": "Toxicity in rabbit assessed as skin irritation at 100 to 200 mg/L after administration bandaged for 4 hrs and measured after 1 to 72 hrs of contact time", "parameters": "species or system Oryctolagus cuniculus", "details": "in vivo, topical_or_ocular, dose lower 100 mg/L, time lower 1 hrs, dose upper 200 mg/L, time upper 76 hrs"}, "Escherichia coli [24]": {"tested_on": "Escherichia coli", "assay": "Bactericidal activity against Escherichia coli CCM 3954 assessed as reduction in viable cell count measured after 24 hrs by Time kill assay", "type": "functional, organism-based", "details": "dose 2-8 mg/L, DDE = dose-dependent effect"}, "[25]": {"assay": "Toxicity in human cornea epidermis model assessed as eye irritation incubated for 42 hrs", "type": "tissue-based"}, "[26]": {"assay": "Hemolytic activity in human RBC assessed as haemoglobin release measured after 3 hr", "type": "toxicity, cell-based, Erythrocyte", "details": "red blood cells (erythrocytes)"}, "Staphylococcus aureus [27]": {"tested_on": "Staphylococcus aureus", "assay": "Antibacterial activity against Staphylococcus aureus ATCC 29213 = CCM 4223 assessed as inhibition of bacterial growth incubated for 24 hrs by microdilution assay", "type": "functional"}, "Staphylococcus aureus [28]": {"tested_on": "Staphylococcus aureus", "assay": "Antibacterial activity against […] Staphylococcus aureus 4460/A assessed as reduction in microbial growth incubated for 24 hrs by microdilution assay", "type": "functional"}, "Cell membrane [29]": {"tested_on": "Cell membrane", "assay": "Induction of cell envelope damage in Staphylococcus aureus assessed as loss of cell integrity at 8 mg/L measured after 8 hrs by scanning electron microscope analysis", "type": "subcellular"}, "Staphylococcus aureus [30]": {"tested_on": "Staphylococcus aureus", "assay": "Antibacterial activity against wild type Staphylococcus aureus 4515/A assessed as reduction in microbial growth incubated for 24 hrs by microdilution assay", "type": "functional"}, "Staphylococcus aureus [31]": {"tested_on": "Staphylococcus aureus", "assay": "microbe, parasite or virus in culture", "details": "4862/C, 24 h", "description": "Antibacterial activity against wild type Staphylococcus aureus 4862/C assessed as reduction in microbial growth incubated for 24 hrs by microdilution assay"}, "Escherichia coli [32]": {"tested_on": "Escherichia coli", "assay": "Antibacterial activity against Escherichia coli CCM 3954 assessed as time to reduce microbial population at 2 mg/L measured by time-kill assay", "type": "functional"}, "Escherichia coli [33]": {"tested_on": "Escherichia coli", "assay": "Antibacterial activity against Escherichia coli ATCC 25922 = CCM 3954 assessed as inhibition of bacterial growth incubated for 24 hrs in presence of BSA by microdilution assay", "type": "functional"}, "Staphylococcus aureus [34]": {"tested_on": "Staphylococcus aureus", "assay": "Bactericidal activity against Staphylococcus aureus CCM 4223 assessed as reduction in viable cell count measured after 24 hrs by Time kill assay", "type": "functional, organism-based", "details": "DDE = dose-dependent effect"}, "Staphylococcus aureus [35]": {"tested_on": "Staphylococcus aureus", "assay": "Antibacterial activity against wild type Staphylococcus aureus 4679/B assessed as reduction in microbial growth incubated for 24 hrs by microdilution assay", "type": "functional"}, "Pseudomonas aeruginosa [36]": {"tested_on": "Pseudomonas aeruginosa", "assay": "Antibacterial activity against Pseudomonas aeruginosa CCM 3955 persisters assessed as reduction in bacterial cell count at 1 to 10 times MIC incubated for 3 hrs by cell counting method", "type": "functional, organism-based"}, "Staphylococcus aureus [37]": {"tested_on": "Staphylococcus aureus", "assay": "Antibacterial activity against wild type Staphylococcus aureus 4740/B assessed as reduction in microbial growth incubated for 24 hrs by microdilution assay", "type": "functional"}, "[38]": {"assay": "Toxicity in human cornea epidermis model assessed as tissue viability pretreated for 1 hr and measured after 42 hrs by MTT assay relative to control", "type": "tissue-based", "details": "read-out: Activity"}, "Staphylococcus aureus [39]": {"tested_on": "Staphylococcus aureus", "assay": "Antibacterial activity against […] Staphylococcus aureus 4461/A assessed as reduction in microbial growth incubated for 24 hrs by microdilution assay", "type": "functional"}, "Pseudomonas aeruginosa [40]": {"tested_on": "Pseudomonas aeruginosa", "assay": "Antibacterial activity against Pseudomonas aeruginosa ATCC 27853 = CCM 3955 assessed as inhibition of bacterial growth incubated for 24 hrs by microdilution assay", "type": "functional"}, "[41]": {"assay": "Toxicity in human epidermis model assessed as skin irritation incubated for 42 hrs", "type": "tissue-based"}, "Staphylococcus aureus [42]": {"tested_on": "Staphylococcus aureus", "assay": "Antibacterial activity against wild type Staphylococcus aureus 4561/A assessed as reduction in microbial growth incubated for 24 hrs by microdilution assay", "type": "functional"}}, "note": "Activity calls are given as the source filed them. The calls are words filed in the database; no cut-off is given here.", "data": [{"smiles": "CCCCCCCCOP(=O)(CCN(CCCN)CCCN)OCCCCCCOP(=O)(CCN(CCCN)CCCN)OCCCCCCCC.Cl.Cl.Cl.Cl.Cl.Cl", "note": "(stereo not drawn)", "values": [{"measurement": "MIC", "setting": "Escherichia coli [1]", "result": 0.5, "unit": "µg/mL"}, {"measurement": "Activity", "setting": "Cell membrane [2]", "result": "Active"}, {"measurement": "Activity", "setting": "Lipid bilayer", "result": "Active"}, {"measurement": "MIC", "setting": "[3]", "result": 0.5, "unit": "µg/mL"}, {"measurement": "MIC", "setting": "Staphylococcus aureus [4]", "result": 0.5, "unit": "µg/mL"}, {"measurement": "MIC", "setting": "Staphylococcus aureus [5]", "result": 0.5, "unit": "µg/mL"}, {"measurement": "MIC", "setting": "Staphylococcus aureus [6]", "result": 0.5, "unit": "µg/mL"}, {"measurement": "Activity", "setting": "Staphylococcus aureus [7]", "result": "Active"}, {"measurement": "Activity", "setting": "Escherichia coli [8]", "result": "Active"}, {"measurement": "MIC", "setting": "Staphylococcus aureus [9]", "result": 0.5, "unit": "µg/mL"}, {"measurement": "Activity", "setting": "Cell membrane [10]", "result": "Active"}, {"measurement": "MIC", "setting": "Staphylococcus aureus [11]", "result": 1, "unit": "µg/mL"}, {"measurement": "Activity", "setting": "Cell membrane [12]", "result": "Dde"}, {"measurement": "MIC", "setting": "Staphylococcus aureus [13]", "result": 1, "unit": "µg/mL"}, {"measurement": "MIC", "setting": "Pseudomonas aeruginosa [14]", "result": 2, "unit": "µg/mL"}, {"measurement": "MIC", "setting": "Staphylococcus aureus [15]", "result": 1, "unit": "µg/mL"}, {"measurement": "CHI", "setting": "[16]", "result": 36.9}, {"measurement": "Activity", "setting": "Cell membrane [17]", "result": "Active"}, {"measurement": "Activity", "setting": "Cell membrane [18]", "result": "Active"}, {"measurement": "MIC", "setting": "Staphylococcus aureus [19]", "result": 0.5, "unit": "µg/mL"}, {"measurement": "MIC", "setting": "Staphylococcus aureus [20]", "result": 0.5, "unit": "µg/mL"}, {"measurement": "MIC", "setting": "Escherichia coli [21]", "result": 1, "unit": "µg/mL"}, {"measurement": "MIC", "setting": "Staphylococcus aureus [22]", "result": 1, "unit": "µg/mL"}, {"measurement": "Activity", "setting": "[23]", "result": "Non-Toxic"}, {"measurement": "Activity", "setting": "Escherichia coli [24]", "result": "Dde"}, {"measurement": "Activity", "setting": "[25]", "result": "Non-Toxic"}, {"measurement": "HC50 at 3 h", "setting": "[26]", "result": 162, "unit": "µg/mL"}, {"measurement": "MIC", "setting": "Staphylococcus aureus [27]", "result": 0.5, "unit": "µg/mL"}, {"measurement": "MIC", "setting": "Staphylococcus aureus [28]", "result": 1, "unit": "µg/mL"}, {"measurement": "Activity", "setting": "Cell membrane [29]", "result": "Active"}, {"measurement": "MIC", "setting": "Staphylococcus aureus [30]", "result": 1, "unit": "µg/mL"}, {"measurement": "MIC", "setting": "Staphylococcus aureus [31]", "result": 0.5, "unit": "µg/mL"}, {"measurement": "Time", "setting": "Escherichia coli [32]", "result": 12, "unit": "h"}, {"measurement": "MIC", "setting": "Escherichia coli [33]", "result": 0.5, "unit": "µg/mL"}, {"measurement": "Activity", "setting": "Staphylococcus aureus [34]", "result": "Dde"}, {"measurement": "MIC", "setting": "Staphylococcus aureus [35]", "result": 0.5, "unit": "µg/mL"}, {"measurement": "Activity", "setting": "Pseudomonas aeruginosa [36]", "result": "Active"}, {"measurement": "MIC", "setting": "Staphylococcus aureus [37]", "result": 0.5, "unit": "µg/mL"}, {"measurement": "viability at 42 h", "setting": "[38]", "result": "> 60", "unit": "%"}, {"measurement": "MIC", "setting": "Staphylococcus aureus [39]", "result": 0.5, "unit": "µg/mL"}, {"measurement": "MIC", "setting": "Pseudomonas aeruginosa [40]", "result": 2, "unit": "µg/mL"}, {"measurement": "Activity", "setting": "[41]", "result": "Non-Toxic"}, {"measurement": "MIC", "setting": "Staphylococcus aureus [42]", "result": 0.5, "unit": "µg/mL"}]}]}
